“Also recorded” adds a separate entry of the source. Like-named read-outs stand apart in the source and are kept apart here.
Legend:
[1] = biological target: T1, Ca^2+-bound EF (EF domain of LPL) (Homo sapiens, UniProt P13796); assay: Surface plasmon resonance (SPR), peptides binding to immobilized EF
T1 construct: His-tag (with TEV protease cleavage site) (N, cleaved yes); made in house; host or cells: E. coli BL21 (DE3)
T1 sequence (P13796 1-82 limits assumed): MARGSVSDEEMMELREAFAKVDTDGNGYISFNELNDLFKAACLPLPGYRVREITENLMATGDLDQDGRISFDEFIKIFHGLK
Protocol: The binding between Ca^2+-bound LPL-EF and a synthetic peptide corresponding to H5 (Ac-[…]-NH2) was evaluated by SPR using a BIAcore X100 instrument (GE Healthcare) and was compared to other peptides including the cytotoxic peptide melittin, and the CaM-target CaMKI and smMLCK peptides. Peptides used here were purchased as synthetic peptides with >95% purity from Genscript (San Diego, CA). The EF construct was immobilized via its sole cysteine residue (Cys42) onto a CM5 sensor chip (GE Healthcare) using thiol-coupling. The running buffer contained 10 mM Tris-HCl pH 7.5, 150 mM KCl, 1 mM CaCl2, and 0.005% (v/v) Tween-20. Different concentrations of the peptide sample were injected at a flow rate of 30 μL/min with a contact time of 1 min at 25 °C. The BIAevaluation software 2.0 (GE Healthcare) was used to process the SPR sensorgrams and for curve-fitting to obtain the dissociation constants (Kd’s). Two different concentrations in each experiment were injected twice to obtain the fitting errors (SEM).
SPR measurements for the interactions between EF and various peptides. The affinity fittings […]
The response units at 4 seconds after starting the injection were used for CaMKIp due to the nonspecific binding seen later during the injection, while the response units at 4 seconds before stopping the injection were used for the […]
(1 picture or pasted object on this page, not shown here)

[2] = tested on: normal cells; details: in words; no ref at the sentence; cited from earlier work
Source text: Development of metastasis provides the most serious challenge for cancer treatment and is responsible for most cancer related deaths. A number of recent studies have shown that ectopically expressed LPL is largely responsible for this process. Therefore, LPL presents itself as a promising target for drug development to prevent the metastatic activity of the cancer cells. It is also well known that inhibition of fascin, another actin-bundling protein, is a viable approach to block tumor metastasis.

[3] = tested on: ^15N-labeled ABD2 (residues 384–627); assay: NMR titration of ^15N-labeled ABD2 with peptide; format: binding, human; details: synthetic H5 peptide titrated into ^15N-labeled ABD2 (Supplementary Fig. S5b)
[4] = tested on: ^15N-labeled EF; assay: HSQC NMR titration of ^15N-labeled EF with peptide; format: binding, human; details: H5 peptide added to ^15N-labeled EF (Supplementary Fig. S8)
Protocol: The calcium-free samples of EF-H5, EF-H5-S5E, and EF contained 0.5–1.0 mM ^15N- or ^13C,^15N-labeled protein, 100 mM KCl, 20 mM Bis-Tris (pH 6.8), 1 mM EDTA, 0.03% NaN3, 10 mM ^2H-labelled dithiothreitol (^2H-DTT), and 0.5 mM 2,2-dimethyl-2- silapentane-5-sulfonate (DSS) in 99.99% D2O or 10% D2O/90% H2O. The calcium free non-labeled LPL-EF was also prepared in 99.99% D2O with the same buffer components. The calcium-bound form of those constructs were prepared in buffer containing ~1 mM ^15N- or ^13C,^15N-labelled protein, 100 mM KCl, 20 mM Bis-Tris (pH 6.8), 5 mM CaCl2, 0.03% NaN3, 0.5 mM DSS, and 10 mM ^2H-DTT in 99.99% D2O or 10% D2O/90% H2O. The calcium-bound non-labeled LPL-EF-H5 was also prepared in 99.99% D2O with the same buffer ingredients. DSS was used as a reference to obtain ^1H, ^15N and ^13C chemical shifts. All NMR spectra were processed with NMRPipe[71] and analyzed using NMRView[72].
All NMR experiments were performed with a Bruker Avance 700 or 600 MHz spectrometer at 25 °C. […] All NOESY experiments including three-dimensional ^15N-edited NOESY-HSQC and ^13C-edited NOESY-HSQC, and two-dimensional NOESY were measured with a mixing time of 120 ms. {^1H}-^15N heteronuclear NOE data were obtained using a 5 sec train of 120° proton pulses.

[5] = EF immobilized via Cys42 on CM5 chip, 10 mM Tris-HCl pH 7.5, 150 mM KCl, 1 mM CaCl2, 0.005% Tween-20, 25 °C, response at 4 seconds before stopping the injection, fitting error SEM, read-out: KD

CC[C@H](C)[C@H](NC(=O)CN)C(=O)NCC(=O)N[C@@H](C)C(=O)N[C@H](C(=O)N[C@@H](CC(C)C)C(=O)N[C@@H](CCCCN)C(=O)N[C@H](C(=O)N[C@@H](CC(C)C)C(=O)N[C@H](C(=O)N[C@H](C(=O)NCC(=O)N[C@@H](CC(C)C)C(=O)N1CCC[C@H]1C(=O)N[C@@H](C)C(=O)N[C@@H](CC(C)C)C(=O)N[C@H](C(=O)N[C@@H](CO)C(=O)N[C@@H](Cc1c[nH]c2ccccc12)C(=O)N[C@H](C(=O)N[C@@H](CCCCN)C(=O)N[C@@H](CCCNC(=N)N)C(=O)N[C@@H](CCCCN)C(=O)N[C@@H](CCCNC(=N)N)C(=O)N[C@@H](CCC(N)=O)C(=O)N[C@@H](CCC(N)=O)C(N)=O)[C@@H](C)CC)[C@@H](C)CC)[C@@H](C)O)[C@@H](C)O)C(C)C)C(C)C [Melittin, reference compound]
Kd [1, 5]: 0.158 µM | Hemolysis and toxicity [2]: strong hemolytic peptide that is toxic to all normal cells

Ac-STDVAKTFRKAINKKEGI-NH2 [H5p]
Kd ([1]; Ca^2+-bound EF, SPR, pH 7.5, 25 °C, read-out: Kd of H5 peptide for Ca^2+-bound EF (order of magnitude, discussion)): 1 µM | Kd [1, 5]: 3.52 µM | Interaction with ABD2 (chemical shift changes) [3]: no chemical shift changes were observed, indicating no interaction | HSQC spectral effect of H5 peptide on ^15N-labeled EF [4]: intermediate exchange and resultant line broadening; also recorded: did not produce the same spectrum as EF-H5
